{"source": "patent US20250221953A1", "about": "(The University of Chicago, priority 2022, published 2025)", "key": {"[1]": {"test_system": "murine melanoma B16 cells", "test": "Oral gavage in syngeneic mice inoculated with B16 cells", "format": "in vivo, mouse"}, "[2]": {"test_system": "mouse melanoma B16 cells with CD8+ T cells", "test": "CD8+ T cell mediated killing of B16 cells in vitro", "format": "cell-based"}}, "data": [{"substance": "C-PEPTIDE FRAGMENT 3-33, HUMAN/C-peptide [#203]", "values": [{"measurement": "anti-tumor immunity", "setting": "[1]", "value": "increased anti-tumor immunity in a dose dependent manner"}, {"measurement": "CD8+ T cells mediated killing of mouse melanoma B16 cells", "setting": "[2]", "value": "enhances CD8+ T cells mediated killing of mouse melanoma B16 cells"}, {"measurement": "killing and CD8 T cell function compared with TVA", "setting": "[2]", "value": "better than cells treated with TVA"}]}]}
